Results from ChEMBL document CHEMBL1139192, “Novel bis(indolyl)maleimide pyridinophanes that are potent, selective inhibitors of glycogen synthase kinase-3” (Bioorg Med Chem Lett, 2007).

Assays:
[1] = target: 3-phosphoinositide-dependent protein kinase 1 (Homo sapiens) (UniProt O15530); assay: Inhibition of human PDK1 at 1 uM relative to control; values are per cent of control
[2] = target: Protein kinase C theta type (Homo sapiens, UniProt Q04759); assay: Residual activity of human PKCtheta at 1 uM relative to control
Protein kinase C theta type, sequence (Q04759 whole entry, looked up): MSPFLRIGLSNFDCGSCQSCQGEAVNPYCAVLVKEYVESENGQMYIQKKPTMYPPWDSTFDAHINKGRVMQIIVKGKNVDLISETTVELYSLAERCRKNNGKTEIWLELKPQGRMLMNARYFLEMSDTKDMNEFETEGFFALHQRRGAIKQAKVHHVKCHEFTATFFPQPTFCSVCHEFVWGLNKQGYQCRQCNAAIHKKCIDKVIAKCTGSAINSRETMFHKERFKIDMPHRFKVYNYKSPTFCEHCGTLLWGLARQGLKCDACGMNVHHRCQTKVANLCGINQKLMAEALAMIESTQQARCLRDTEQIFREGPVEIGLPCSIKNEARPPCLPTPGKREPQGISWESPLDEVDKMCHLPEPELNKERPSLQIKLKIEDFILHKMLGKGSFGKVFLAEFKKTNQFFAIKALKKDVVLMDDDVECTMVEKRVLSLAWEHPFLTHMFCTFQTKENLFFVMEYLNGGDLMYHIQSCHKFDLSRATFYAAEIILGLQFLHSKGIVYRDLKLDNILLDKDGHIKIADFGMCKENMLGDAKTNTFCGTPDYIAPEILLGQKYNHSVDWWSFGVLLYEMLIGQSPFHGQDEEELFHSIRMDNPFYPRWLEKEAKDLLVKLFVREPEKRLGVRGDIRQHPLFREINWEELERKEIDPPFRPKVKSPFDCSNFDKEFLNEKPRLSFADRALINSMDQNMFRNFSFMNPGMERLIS

Rattus norvegicus = species: Rattus norvegicus; assay: Inhibition of rat CaMK2 at 1 uM relative to control; values are per cent of control
[3] = target: Ribosomal protein S6 kinase alpha-1 (Homo sapiens, UniProt Q15418); assay: Inhibition of human Rsk1 at 1 uM relative to control; values are per cent of control
Ribosomal protein S6 kinase alpha-1, sequence (Q15418 whole entry): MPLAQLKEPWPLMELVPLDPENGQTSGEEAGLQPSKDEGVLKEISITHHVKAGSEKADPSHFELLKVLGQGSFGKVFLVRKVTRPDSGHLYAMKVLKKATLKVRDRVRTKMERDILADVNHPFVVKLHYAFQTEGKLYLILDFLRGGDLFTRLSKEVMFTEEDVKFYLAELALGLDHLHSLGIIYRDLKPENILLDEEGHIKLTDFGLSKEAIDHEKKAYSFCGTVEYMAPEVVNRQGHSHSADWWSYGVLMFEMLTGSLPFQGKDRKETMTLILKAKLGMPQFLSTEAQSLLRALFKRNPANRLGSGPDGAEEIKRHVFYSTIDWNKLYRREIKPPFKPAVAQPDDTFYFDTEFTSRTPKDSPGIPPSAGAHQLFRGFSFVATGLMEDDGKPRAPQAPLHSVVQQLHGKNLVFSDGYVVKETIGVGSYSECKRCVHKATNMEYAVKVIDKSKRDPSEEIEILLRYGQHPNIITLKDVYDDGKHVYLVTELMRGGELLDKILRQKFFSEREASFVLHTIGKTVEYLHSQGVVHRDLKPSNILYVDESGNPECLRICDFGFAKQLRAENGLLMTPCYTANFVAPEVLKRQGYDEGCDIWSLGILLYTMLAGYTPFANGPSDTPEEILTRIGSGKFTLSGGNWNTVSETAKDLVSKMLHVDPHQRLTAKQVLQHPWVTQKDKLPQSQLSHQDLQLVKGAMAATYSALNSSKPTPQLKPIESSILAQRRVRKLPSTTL

[4] = target: Proto-oncogene tyrosine-protein kinase Src (Homo sapiens) (UniProt P12931); assay: Residual activity of human cSRC at 1 uM relative to control
[5] = target: BDNF/NT-3 growth factors receptor (Homo sapiens, UniProt Q16620); assay: Residual activity of human TrkB at 1 uM relative to control
BDNF/NT-3 growth factors receptor, sequence (Q16620 32-822 limits assumed): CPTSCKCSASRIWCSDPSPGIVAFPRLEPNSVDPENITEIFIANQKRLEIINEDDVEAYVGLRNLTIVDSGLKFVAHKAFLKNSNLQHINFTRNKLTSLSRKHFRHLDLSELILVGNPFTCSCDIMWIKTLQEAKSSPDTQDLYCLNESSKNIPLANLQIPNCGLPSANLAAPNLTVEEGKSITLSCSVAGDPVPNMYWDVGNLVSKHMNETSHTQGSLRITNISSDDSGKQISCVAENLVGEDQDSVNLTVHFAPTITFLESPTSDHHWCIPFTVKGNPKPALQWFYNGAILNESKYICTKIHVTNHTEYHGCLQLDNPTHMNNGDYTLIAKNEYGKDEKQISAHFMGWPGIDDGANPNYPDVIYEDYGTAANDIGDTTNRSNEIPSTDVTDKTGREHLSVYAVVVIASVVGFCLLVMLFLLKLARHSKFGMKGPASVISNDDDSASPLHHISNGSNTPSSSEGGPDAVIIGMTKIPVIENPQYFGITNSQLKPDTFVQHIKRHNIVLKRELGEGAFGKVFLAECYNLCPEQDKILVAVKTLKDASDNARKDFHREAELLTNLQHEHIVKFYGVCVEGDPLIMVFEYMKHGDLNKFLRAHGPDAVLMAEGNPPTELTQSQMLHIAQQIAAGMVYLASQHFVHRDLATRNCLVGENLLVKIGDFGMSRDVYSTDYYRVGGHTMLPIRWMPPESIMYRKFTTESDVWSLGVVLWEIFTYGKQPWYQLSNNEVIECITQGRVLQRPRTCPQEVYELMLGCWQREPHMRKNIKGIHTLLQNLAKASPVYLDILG

[6] = target: T1, Calcium/calmodulin-dependent protein kinase type IV (Homo sapiens) (UniProt Q16566); assay: Residual activity of human CaMK4 at 1 uM relative to control
T1 sequence (whole entry): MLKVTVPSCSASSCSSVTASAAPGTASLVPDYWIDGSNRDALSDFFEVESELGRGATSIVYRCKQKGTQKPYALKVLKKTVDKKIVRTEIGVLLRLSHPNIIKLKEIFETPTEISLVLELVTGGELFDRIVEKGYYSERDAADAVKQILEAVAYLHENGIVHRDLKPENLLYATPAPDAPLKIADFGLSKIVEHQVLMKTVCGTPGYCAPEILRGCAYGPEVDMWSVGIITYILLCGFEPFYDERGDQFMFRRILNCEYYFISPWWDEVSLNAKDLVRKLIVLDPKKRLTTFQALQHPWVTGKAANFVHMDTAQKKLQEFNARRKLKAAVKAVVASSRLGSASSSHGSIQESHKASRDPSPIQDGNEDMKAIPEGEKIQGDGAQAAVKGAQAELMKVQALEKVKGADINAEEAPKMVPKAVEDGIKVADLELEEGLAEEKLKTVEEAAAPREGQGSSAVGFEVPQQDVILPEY

[7] = target: Serine/threonine-protein kinase N2 (Homo sapiens) (UniProt Q16513); assay: Residual activity of human PRK2 at 1 uM relative to control
Homo sapiens [8] = species: Homo sapiens; assay: Inhibition of human MAPK2 at 1 uM relative to control; values are per cent of control
[9] = target: T2, Serine/threonine-protein kinase 3 (Homo sapiens) (UniProt Q13188); assay: Inhibition of human MST2 at 1 uM relative to control; values are per cent of control
T2 sequence (whole entry): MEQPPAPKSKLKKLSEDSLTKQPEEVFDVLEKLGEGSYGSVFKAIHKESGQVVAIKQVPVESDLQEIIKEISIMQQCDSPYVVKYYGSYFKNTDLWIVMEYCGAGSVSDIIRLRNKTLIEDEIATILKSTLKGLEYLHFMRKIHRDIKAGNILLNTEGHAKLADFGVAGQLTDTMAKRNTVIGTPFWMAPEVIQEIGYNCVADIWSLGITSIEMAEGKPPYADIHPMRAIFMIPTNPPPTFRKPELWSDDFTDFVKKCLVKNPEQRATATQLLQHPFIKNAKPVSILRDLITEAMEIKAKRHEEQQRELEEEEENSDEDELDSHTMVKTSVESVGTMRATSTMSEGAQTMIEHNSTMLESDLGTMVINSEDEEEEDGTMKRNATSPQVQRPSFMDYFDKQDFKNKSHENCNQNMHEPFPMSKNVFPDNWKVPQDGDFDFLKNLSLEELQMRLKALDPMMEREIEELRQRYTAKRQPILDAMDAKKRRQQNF

[10] = target: Tyrosine-protein kinase ABL1 (Mus musculus) (UniProt P00520); assay: Residual activity of mouse Abl kinase at 1 uM relative to control
Tyrosine-protein kinase ABL1 (Mus musculus), sequence (P00520 whole entry): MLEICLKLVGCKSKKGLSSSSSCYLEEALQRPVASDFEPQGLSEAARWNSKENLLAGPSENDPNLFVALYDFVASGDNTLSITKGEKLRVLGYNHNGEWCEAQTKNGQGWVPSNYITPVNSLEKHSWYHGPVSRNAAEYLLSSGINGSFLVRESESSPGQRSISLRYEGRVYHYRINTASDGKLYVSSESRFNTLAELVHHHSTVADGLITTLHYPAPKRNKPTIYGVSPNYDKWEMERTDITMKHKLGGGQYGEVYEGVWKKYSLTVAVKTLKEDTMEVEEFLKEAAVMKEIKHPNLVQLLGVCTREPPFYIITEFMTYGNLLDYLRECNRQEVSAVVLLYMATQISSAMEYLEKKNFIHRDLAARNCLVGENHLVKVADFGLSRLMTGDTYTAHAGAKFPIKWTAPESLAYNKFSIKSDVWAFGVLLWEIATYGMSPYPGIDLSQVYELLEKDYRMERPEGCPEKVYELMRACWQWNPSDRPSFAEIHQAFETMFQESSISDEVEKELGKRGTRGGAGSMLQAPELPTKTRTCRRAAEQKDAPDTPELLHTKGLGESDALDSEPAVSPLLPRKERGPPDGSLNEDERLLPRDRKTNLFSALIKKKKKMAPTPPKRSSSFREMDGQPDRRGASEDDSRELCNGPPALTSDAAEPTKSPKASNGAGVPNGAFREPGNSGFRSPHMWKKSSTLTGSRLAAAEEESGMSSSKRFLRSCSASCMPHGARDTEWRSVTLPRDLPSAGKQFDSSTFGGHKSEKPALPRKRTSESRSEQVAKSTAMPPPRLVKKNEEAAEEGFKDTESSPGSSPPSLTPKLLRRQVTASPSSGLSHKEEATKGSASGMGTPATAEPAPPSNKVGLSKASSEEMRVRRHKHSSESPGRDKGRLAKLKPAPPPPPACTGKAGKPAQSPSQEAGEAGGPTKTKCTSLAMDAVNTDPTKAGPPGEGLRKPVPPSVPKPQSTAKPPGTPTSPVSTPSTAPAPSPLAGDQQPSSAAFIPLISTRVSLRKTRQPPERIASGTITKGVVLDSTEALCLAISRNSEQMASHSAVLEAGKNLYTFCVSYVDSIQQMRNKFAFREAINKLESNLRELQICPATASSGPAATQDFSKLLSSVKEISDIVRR

[11] = target: MAP kinase-activated protein kinase 2 (Homo sapiens) (UniProt P49137); assay: Inhibition of MAPKAPK2 at 1 uM relative to control; values are per cent of control
MAP kinase-activated protein kinase 2 (Homo sapiens), sequence (P49137 whole entry, looked up): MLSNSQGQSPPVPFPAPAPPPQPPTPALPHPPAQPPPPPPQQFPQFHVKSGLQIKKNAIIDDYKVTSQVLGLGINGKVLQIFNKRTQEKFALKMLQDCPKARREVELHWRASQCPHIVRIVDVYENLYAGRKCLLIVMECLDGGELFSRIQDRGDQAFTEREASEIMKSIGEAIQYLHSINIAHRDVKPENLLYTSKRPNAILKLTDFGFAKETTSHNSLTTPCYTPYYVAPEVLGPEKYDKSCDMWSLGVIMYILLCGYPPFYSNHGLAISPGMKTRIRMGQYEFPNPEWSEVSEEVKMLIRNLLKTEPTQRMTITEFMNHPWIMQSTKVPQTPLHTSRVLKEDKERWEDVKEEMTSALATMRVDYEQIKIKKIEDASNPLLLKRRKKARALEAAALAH

[12] = target: Serine/threonine-protein kinase PAK 2 (Homo sapiens) (UniProt Q13177); assay: Inhibition of human PAK2 at 1 uM relative to control; values are per cent of control
[13] = target: Proto-oncogene tyrosine-protein kinase ROS (Homo sapiens) (UniProt P08922); assay: Inhibition of human Ros kinase at 1 uM relative to control; values are per cent of control
[14] = target: Protein kinase C gamma type (Homo sapiens) (UniProt P05129); assay: Residual activity of human PKCgamma at 1 uM relative to control
Homo sapiens [15] = species: Homo sapiens; assay: Residual activity of human CDK1/Cyclin B at 1 uM relative to control

3-phosphoinositide-dependent protein kinase 1 (Homo sapiens), sequence (O15530 whole entry, looked up): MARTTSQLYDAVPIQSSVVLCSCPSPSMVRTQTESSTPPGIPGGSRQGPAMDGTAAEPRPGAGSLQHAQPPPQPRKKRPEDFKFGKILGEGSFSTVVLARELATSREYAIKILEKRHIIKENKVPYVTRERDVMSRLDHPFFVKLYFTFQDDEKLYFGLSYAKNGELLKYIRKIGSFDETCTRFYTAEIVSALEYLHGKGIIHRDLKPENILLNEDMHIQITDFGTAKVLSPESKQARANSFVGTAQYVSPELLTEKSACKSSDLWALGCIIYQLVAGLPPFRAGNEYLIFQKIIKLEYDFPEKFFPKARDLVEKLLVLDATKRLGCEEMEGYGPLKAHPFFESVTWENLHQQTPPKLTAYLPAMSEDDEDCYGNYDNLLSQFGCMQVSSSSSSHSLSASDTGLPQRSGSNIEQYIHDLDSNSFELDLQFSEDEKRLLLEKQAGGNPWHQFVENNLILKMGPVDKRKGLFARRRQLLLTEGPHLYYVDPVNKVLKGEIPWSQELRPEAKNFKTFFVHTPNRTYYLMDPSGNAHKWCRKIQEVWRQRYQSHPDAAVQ

Row | SMILES | residual activity [1] | residual activity [2] | residual activity (Rattus norvegicus) | residual activity [3] | residual activity [4] | residual activity [5] | residual activity [6] | residual activity [7] | residual activity (Homo sapiens [8]) | residual activity [9] | residual activity [10] | residual activity [11] | residual activity [12] | residual activity [13] | residual activity [14] | residual activity (Homo sapiens [15])
1 | CN(C)c1cc2cc(n1)CCCn1cc(c3ccccc31)C1=C(C(=O)NC1=O)c1cn(c3ccccc13)CCC2 | 104% | 27% | 107% | 15% | 105% | 98% | 113% | 113% | 104% | 84% | 108% | 101% | 103% | 108% | 107% | 98%
2 | O=C1NC(=O)C2=C1c1cn(c3ccccc13)CCCc1cc(nc(N3CCCC3)c1)CCCn1cc2c2ccccc21 | 107% | 29% | 109% | 15% | 97% | 105% | 112% | 110% | 92% | 100% | 104% | 108% | 100% | 117% | 99% | 80%
3 | O=C1NC(=O)C2=C1c1cn(c3ccccc13)CCCc1ccc(c(N3CCCC3)n1)CCCn1cc2c2ccccc21 | 100% | 33% |  | 85% | 113% | 106% | 99% | 126% | 88% | 86% | 110% |  | 102% | 105% | 102% | 
4 | CN(C)c1nc2ccc1CCCn1cc(c3ccccc31)C1=C(C(=O)NC1=O)c1cn(c3ccccc13)CC2 | 115% | 21% | 92% | 39% | 81% |  | 92% | 106% | 102% | 103% | 98% | 98% | 93% | 79% | 91% | 78%
